Results: patent US20220257629A1, “COMPOSITIONS AND METHODS FOR UPREGULATION OF HUMAN FETAL HEMOGLOBIN” (THE UAB RESEARCH FOUNDATION, priority 2019, published 2022)

Assays:
[1] = system: human CD34+-differentiated erythroid cells; assay: FACS analysis of fetal hemoglobin expressing erythroid cells (F cells); format: cell-based; settings: 0.3, 0.5 or 0.7 μM, 14 days, compared to DMSO control (FIG. 1)
From the text: For fetal hemoglobin analysis, one million erythroid cells, differentiated for 14 days with or without idoxuridine in the medium, were washed with PBS that included 0.1% BSA, and fixed in 0.05% Glutaraldehyde (Sigma, G5882, St. Louis, Mo.). The fixed cells were washed three times with PBS that included 0.1% BSA, followed by permeabilization in 1% Triton X-100 (Life Technologies, HFH-10, Carlsbad, Calif.), before immunostaining with an antibody directed against HbF (Invitrogen, MHFH04, Carlsbad, Calif.).

[2] = system: human β-globin BAC transgenic mice; assay: In vivo globin gene expression by qRT-PCR; parameters: species or system mouse; settings: 100 mg/kg daily intraperitoneal injections for four weeks, blood, qRT-PCR (FIG. 6)
Description: To test if idoxuridine can induce mouse Ey2 and human γ-globin expression in human β-BAC transgenic mice, 100 mg/kg body weight of Idoxuridine were injected intraperitoneally (IP) into mice for 4 weeks. Blood samples were obtained at the end of Idoxuridine treatment and cDNAs were synthesized. Mouse Ey2 and human γ-globin expression were analyzed by qRT-PCR.

[3] = system: human CD34+-differentiated erythroid cells; assay: HPLC hemoglobin analysis; format: cell-based; settings: 0.3 or 0.65 μM, compared to DMSO treated cells (FIG. 2)
Description: (§1) Briefly, for the screen, 5×10^5 CD34^+ cells were expanded for six days in StemSpan SFEM medium (StemCell Technologies Inc., Vancouver, Canada) with SCF, IL-3, TPO and Flt-3 ligand. After expansion, 100,000 cells were distributed to each well (in a 24-well plate) and grown in SFEM medium with 2% P/S, 20 ng/ml SCF, 1 U/ml Epo, 5 ng/ml IL-3, 2 μM dexamethasone, and 1 μM β-estradiol. Individual small molecules were added to each well. Cells were differentiated for another nine days (for RNA analysis) or fourteen days (for hemoglobin analysis). The γ- and β-globin expression in each sample were analyzed by RT-PCR or HPLC.

[4] = system: human CD34+-differentiated erythroid cells; assay: Isoelectric focusing gel of the samples analyzed by HPLC; format: cell-based; settings: idoxuridine 0.3 and 0.65 μM (FIG. 4)
[5] = system: human CD34+-differentiated erythroid cells; assay: Library screen, RT-PCR of γ- and β-globin expression; format: cell-based
Description: as §1

[6] = system: human CD34+-differentiated erythroid cells; assay: Western blot analysis of KLF1, BCL11A and LRF; format: cell-based; settings: 0.7 uM, 7 days, compared to DMSO (FIG. 5)
Description: To analyze the expression of KLF1, BCL11A and LRF by Western blot, whole cell extracts were prepared from erythroid cells differentiated for seven days with DMSO or 0.7 uM of idoxuridine. Antibodies used included Actb (Santa Cruz, sc-47778 HRP, Dallas, Tex.), KLF1 (Santa Cruz, sc-14034), BCL11A (Abcam, ab19489, Cambridge, UK) and LRF (Abcam, ab175918).

[7] = system: human CD34+-differentiated erythroid cells; assay: RNAseq gene expression; format: cell-based
[8] = human CD34+-differentiated erythroid cells

For O=c1[nH]c(=O)n([C@H]2C[C@H](O)[C@@H](CO)O2)cc1I [Idoxuridine, idoxuridine], the “number of erythroid cells expressing fetal hemoglobin (F cells)” value [1] was “increases”, the “human γ-globin gene expression” value [2] was “increased” and the “mouse Ey-2 gene expression” value [2] was “increased”. For the same molecule, the “fetal hemoglobin (HPLC)” value [3] was “significantly increases”, the “HbF expression (isoelectric focusing gel)” value [4] was “upregulated” and the “HbF expression in a drug screen” value [5] was “potent inducers”. The “HbF expression (reverse transcriptase-PCR)” value [5, 8] was “upregulates”, the γ-globin expression ([5]; human CD34+-differentiated erythroid cells contacted with idoxuridine) was “significantly increased” and the “BCL11A expression (Western blot)” value [6] was “decreases”. The “KLF1 expression (Western blot)” value [6] was “decreases”, the ε-globin gene expression ([7]; Table 1) was “reactivated” and the “RNAseq expression, BCL11A” value ([7]; gene BCL11A, idoxuridine treated cells) was 478.2. For the same molecule, the “Fold change, BCL11A” value ([7]; gene BCL11A, idoxuridine vs DMSO control) was 0.303, the “RNAseq expression, HBB” value ([7]; gene HBB, idoxuridine treated cells) was 20938 and the “Fold change, HBB” value ([7]; gene HBB, idoxuridine vs DMSO control) was 0.2. The “RNAseq expression, HBD” value ([7]; gene HBD, idoxuridine treated cells) was 1798, the “Fold change, HBD” value ([7]; gene HBD, idoxuridine vs DMSO control) was 0.16 and the “RNAseq expression, HBE1” value ([7]; gene HBE1, idoxuridine treated cells) was 17051. The “Fold change, HBE1” value ([7]; gene HBE1, idoxuridine vs DMSO control) was 560, the “RNAseq expression, HBG1” value ([7]; gene HBG1, idoxuridine treated cells) was 18815 and the “Fold change, HBG1” value ([7]; gene HBG1, idoxuridine vs DMSO control) was 8.19. The “RNAseq expression, HBG2” value ([7]; gene HBG2, idoxuridine treated cells) was 980, the “Fold change, HBG2” value ([7]; gene HBG2, idoxuridine vs DMSO control) was 6 and the “RNAseq expression, SOX6” value ([7]; gene SOX6, idoxuridine treated cells) was 13. For the same molecule, the “Fold change, SOX6” value ([7]; gene SOX6, idoxuridine vs DMSO control) was 0.25, the “BCL11A mRNA expression” value [7, 8] was “decreased” and the “KLF1 mRNA expression” value [7, 8] was “decreased”.
With O=c1[nH]c(=O)n([C@H]2C[C@H](O)[C@@H](CO)O2)cc1C(F)(F)F [Trifluridine, trifluridine] the “HbF expression in a drug screen” value [5] was “potent inducers” and the “γ-globin gene expression in the original screen” value ([5]; original screen) was “reactivated”.
